PubChem BioAssay (NCI)
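Step 1: Grow cells in 96-well plates. Step 2: Expose to compound for 48 hours at 5 concentrations. Step 3: Interpolate endpoints linearly; if unreached, use highest concentration. The concentration for full growth arrest is given as TGI.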

Legend:
Experiment in all cases: growth of human tumour cells (NCI), 48 h
OVCAR-4 ovarian = system: OVCAR-4 ovarian
SF-295 CNS = system: SF-295 CNS
NCI-H522 lung = system: NCI-H522 lung
HCT-116 colon = system: HCT-116 colon
RPMI-8226 leukemia = system: RPMI-8226 leukemia
SR leukemia = system: SR leukemia
SK-MEL-5 melanoma = system: SK-MEL-5 melanoma
CCRF-CEM leukemia = system: CCRF-CEM leukemia
HOP-92 NSCLC = system: HOP-92 NSCLC
MCF7 breast = system: MCF7 breast

SMILES	TGI (OVCAR-4 ovarian) [µM]	TGI (SF-295 CNS) [µM]	TGI (NCI-H522 lung) [µM]	TGI (HCT-116 colon) [µM]	TGI (RPMI-8226 leukemia) [µM]	TGI (SR leukemia) [µM]	TGI (SK-MEL-5 melanoma) [µM]	TGI (CCRF-CEM leukemia) [µM]	TGI (HOP-92 NSCLC) [µM]	TGI (MCF7 breast) [µM]
Cc1ccc(S(=O)(=O)c2ccc(C)cc2[N+](=O)[O-])c([N+](=O)[O-])c1	> 100	> 100	> 100	> 100	> 100	> 100	> 100	> 100		
Cc1c(-c2coc(-c3ccc([N+](=O)[O-])cc3)n2)c(=O)n(-c2ccccc2)n1C	> 100	> 100	> 100	> 100	> 100		> 100	> 100	> 100	
O=C(c1ccccc1)c1ccc(N2C(=O)/C(=C/c3ccccc3S)N=C2c2ccccc2)c(N2C(=O)/C(=C/c3ccccc3S)N=C2c2ccccc2)c1	> 100	> 100		> 100	53.1	> 100	87.6	> 100	> 100	> 100
CCC1=CC(OCc2ccccc2)C(CCN(Cc2ccccc2)C(=O)OCc2ccccc2)C1 (stereo unspecified)	27.4	35.3	25.9		86.2	56.4	37.8		27	35
O=C(O)C12C3CCC(C3)C1(C(=O)O)C1CCC2C1 (stereo unspecified)		> 100	54.9	> 100	48.4	> 100	> 100	95	> 100	
CN1CCS(=O)(=O)NC(Cc2ccccc2)C(=O)N2CCCC2C1=O (stereo unspecified)	> 100	> 100	> 100	> 100	> 100		> 100	> 100		
C1CSCCSCCSCCSCCS1	> 100	> 100	> 100	> 100	> 100		> 100		> 100	> 100
Nc1ccc(-c2nc3ccccc3s2)cc1CO	> 100	> 100	> 100	> 100	> 100	> 100	> 100	> 100	> 100	
COc1ccc2nc3c4c(nccc4c2c1)-c1ncccc1C3=O	2.01	0.278		0.467	0.236	0.0189	0.111	2.57	12.3	0.179
O=c1[nH]c(=O)n([C@H]2C[C@@H](CO)[C@@H](O)C2)cc1I	> 100		> 100	> 100	> 100		> 100	> 100	> 100	
COc1cc2ccnc(C#N)c2cc1OCc1ccccc1	> 100	> 100	> 100	> 100	> 100		> 100	> 100		
O=C1CCC(=O)c2ccccc2N1	> 100	> 100	> 100	> 100	> 100		> 100	> 100	> 100	
C1=NN2C(c3ccccc3)=NOC2C2C(c3ccccc3)=NOC12 (stereo unspecified)		> 100	> 100	> 100			> 100			> 100
O=C1CC(n2ccnc2)c2c(Cl)sc(Cl)c21 (stereo unspecified)	42.3	> 78.1	17.1	29.5	> 100	> 19.8	41.2	> 22.6		28
CN(C)CC1(Cc2ccccc2)CC/C(=C\c2ccccc2)C1=O (stereo unspecified)	> 100	> 100	30.1	> 100	55.7	60.4	64.3	59.9	> 100	
CCOC(=O)c1c2ccccc2n2c(=O)n(-c3ccc(OC)cc3)nnc12	> 64	> 62.5		> 100	> 91.1	> 100	> 100	> 62.4	> 65.7	> 67.9
CC1=CC2(C)C=C[C@@H]1C(=O)[C@@]1(C)CC[C@@](O)(C(C)C)[C@H]1CC2	38.2	38.1		32.2	62		34	53.4	28.2	76
COc1ccc2nc3ccc(OC)cc3c(S(=O)Cc3ccccc3)c2c1 (stereo unspecified)	30.2	35.4	2.63	6.3	6.6	> 29.8	30.5	> 22.1	> 37.3	
COc1cc(-c2nc(N)c(C#N)c3c2CCS(=O)(=O)c2ccc(C)cc2-3)cc(OC)c1OC	> 100		> 100	> 100	> 100	> 100	> 100	> 100	54.8	
Nc1ncnc2c1ccn2CC#CCO	> 100	> 100	> 100	> 100	> 100		> 100	> 100	> 100	> 100
COc1ccc(/C=C2/SC(=Nc3ccccc3)N(NC(=O)Cc3ccccc3)C2=O)cc1	> 100	> 100		> 100	> 100		> 100	> 100	> 100	> 100
N#CCCC1(CCC#N)S(=O)(=O)OCCOS1(=O)=O	> 100	> 100	> 100	> 100	> 100	> 100	> 100	> 100		> 100
CC(=Nc1ccc(Cl)cc1)c1ccncc1	> 100	> 100	> 100	> 100	> 100		> 100	> 100	> 100	> 100
N#Cc1ccc(C2OCC3CC=CCC3CO2)cc1 (stereo unspecified)	> 100	> 100	> 100	> 100	> 100	> 100	49	> 100		
COC(=O)c1cc(/C=C/C(=O)Cc2ccccc2)cn1S(=O)(=O)c1ccccc1	> 100	> 100	> 100	> 100		> 100	> 100	> 100		> 100
CCCCC/C=C\C=C\CCCCCCCCC(=O)OC	> 100	> 100		> 100	> 100	> 100	> 100		> 100	> 100

SMILES	TGI (OVCAR-4 ovarian) [µM]	TGI (SF-295 CNS) [µM]	TGI (NCI-H522 lung) [µM]	TGI (HCT-116 colon) [µM]	TGI (RPMI-8226 leukemia) [µM]	TGI (SR leukemia) [µM]	TGI (SK-MEL-5 melanoma) [µM]	TGI (CCRF-CEM leukemia) [µM]	TGI (HOP-92 NSCLC) [µM]	TGI (MCF7 breast) [µM]
c1ccc2cc(C3NCCc4[nH]cnc43)ccc2c1 (stereo unspecified)	> 100	> 100	> 100	> 100	> 100	> 100	45.3	91.6	> 100	
Cc1ccc(NC(=O)c2cccc(OP(=O)(Nc3ccc(C)cc3)Nc3ccc(C)cc3)c2)cc1	61.9	> 100	12	80.8		17.1	> 100	> 100	8.93	> 100
c1ccc2c(c1)nc1ccccn12		> 100		> 100	> 100	> 100	> 100	> 100	> 100	> 100
CCOC(=O)/C(C1=NCCN1C)=C(\O)c1ccccc1	> 100	> 100	> 100	> 100	> 100	> 100	> 100	> 100		
Cc1cc(NS(=O)(=O)c2ccc(NO)cc2)no1	> 100			> 100		46.2	> 100	44.7	> 100	47.1
COc1ccc(S(=O)(=O)N/N=C(\C)CN2C(=O)c3ccccc3C2=O)cc1OC	> 100	> 100	> 100	> 100	> 100	> 100	> 100	> 100	> 100	
CCC1(c2ccc(OC)c(OC)c2)CCN(S(=O)(=O)c2ccc(C)cc2)C1 (stereo unspecified)	> 100	> 100	> 100	> 100		> 10	> 100	> 100		> 100
Cc1cc2c(cc1Cl)SC(NNCCO)=NS2(=O)=O	> 100	> 100		> 100	> 100	> 100	> 100	> 100	> 100	> 100
COC(C)=NCCC1=CCCCC1	> 100	> 100	> 100	> 100	> 100	> 100	> 100		> 100	> 100
Cc1cn(CC(=S)NCCc2c[nH]c3ccccc23)c(=O)[nH]c1=O	> 100			> 100	> 100	> 100	> 100	> 100	> 100	> 100
CC(CC(=O)N1C2CC3CCC2(CS1(=O)=O)C3(C)C)[Si](C)(C)C (stereo unspecified)		> 100	> 100	> 100	> 100	> 100	> 100	> 100		> 100
CC(=O)N1C(c2[nH]c3ccccc3c2Cc2ccccc2)CCN1c1ccccc1 (stereo unspecified)	> 10	> 10	> 10	> 10	> 10	> 10	> 10	> 10		> 10
COc1nc(=O)[nH]c2c1C(c1ccc([N+](=O)[O-])cc1)c1c(OC)nc(=O)[nH]c1O2	> 100	> 100	> 100	> 100	> 100		> 100	> 100		
O=C(Nc1ccccc1)OCCN=c1c2ccccc2ccc2ccccc12	> 100	39		35.9	42.2	54.5	31.2	50.4	53.2	
CC(C)CCNC(=O)c1ccc(CNC(=O)/C=C/c2ccc3ccccc3c2)cc1	> 100	> 100		> 100	> 100	> 100	> 100		> 100	> 100
C=C1N(C)c2ccc(S(=O)(=O)c3ccc4c(c3)C(C)(C)C(=C)N4C)cc2C1(C)C	> 100	> 100	58.7	> 100	35.5		43.6	> 100	41.1	> 100
O=c1[nH][nH]c(=O)n1Cc1ccccc1	> 100		> 100	> 100	> 100	> 100	> 100	> 100		> 100
N#CCCC(C#N)(C#N)CCC#N		> 100	> 100	> 100	> 100	> 100	> 100			
COc1ccccc1N1CCN(S(=O)(=O)c2ccc(Cl)cc2)C1=N	> 100	> 100	> 100	> 100	> 100		> 100			> 100
O=c1cccccc1[O-].O=c1cccccc1[O-].O=c1cccccc1[O-].[Nd+3]	> 100	> 100	74.4	68.4	> 100		> 100	> 100	> 100	
COP12(OC)NC(=O)OC1(C(F)(F)F)c1ccccc1O2 (stereo unspecified)	> 100	> 100	> 100	> 100			> 100	> 100		
Cc1n[nH]c(=O)n1/N=C/c1ccco1	> 100	> 100		> 100	> 100			> 100		> 100
Cc1ccccc1N(CCC#N)C1=NN(C(=O)CC(=O)Nc2ccc(Cl)cc2)C(c2ccccc2)C1 (stereo unspecified)	> 100	> 100	> 100	> 100	> 100	> 100	> 100	> 100	> 100	
COc1cc(C2C(C(=O)NCc3ccccc3)=C(C)NC(C)=C2C(=O)NCc2ccccc2)ccc1O	> 100	> 100		> 100	73.6	54.4	> 100	98.3	89.2	
CCOC(=O)c1ccc(N=C2Sc3nc4ccccc4n3C2=Nc2ccc(C(=O)OCC)cc2)cc1	81.5	37.3	> 100	19.2			63.2	> 100	35.9	31.3
